Data published in patent US8513381B2, “Melanocortin analogs with antimicrobial activity” (Fondazione IRCCS Ca' Granda-Ospedale Maggiore Policlinico, priority 2009, dated 2013).
≈ marks a conversion by molar mass, not a printed value. Like-named read-outs stand apart in the source and are kept apart here. Non-standard residues stand in square brackets, D forms with d. Residues, ends and D or L forms follow the SMILES beside them. d2Nal = N[C@H](Cc1ccc2ccccc2c1)C(=O)O; Tle = CC(C)(C)[C@H](N)C(=O)O; Ac6c = NC1(C(=O)O)CCCCC1; Ac5c = NC1(C(=O)O)CCCC1; Ac4c = NC1(C(=O)O)CCC1

Legend:
C. albicans = format: cell-based, Candida albicans
Protocol: (§1) Two Candida albicans isolates were purchased from the ATCC (No. 24433 and 76615). The other yeast isolates were obtained from the collection of Fondazione Ospedale Maggiore Policlinico, Mangiagalli e Regina Elena, Milano. The collection included C. albicans (7 isolates), C. glabrata (3 isolates), and C. krusei (3 isolates). Antifungal susceptibility testing was performed using the broth microdilution method according to the NCCLS M27-A guidelines (National Committee for Clinical Laboratory Standards. 1997, Reference method for broth dilution antifungal susceptibility testing of yeasts and approved standard NCCLS document M27-A. National Committee for Clinical Laboratory Standards, Wayne, Pa.). The organisms were removed from frozen glycerol stock (10% sterile glycerol suspensions stored at −70° C.), subcultured onto Sabouraud's dextrose plates, and incubated at 35° C. After 48 h of incubation, the plates were inspected for purity. To prepare stationary growth phase yeast, a colony was taken from the agar plate and transferred into 5 mL Sabouraud-dextrose broth and incubated for 48 h at 35° C. Cells were centrifuged at 1,000×g for 10 min and the pellet was washed twice with distilled water. Cells were counted and suspended in RPMI 1640 medium buffered to pH 7.0 with 0.165 mol l^−1 morpholinepropanesulphonic acid (MOPS) buffer (Sigma) to obtain the two times test inoculum (1×10^3 to 5×10^3 CFU/mL). Each well of 96 U-shaped well-plates received 100 μl of each antifungal peptides in concentrations from 10^−4 to 7.8×10^−7 M and 100 μl of the two-times inoculum to a final yeast concentration of 0.5×10−[…] cells ml^−1
(§2) The MIC90, i.e. the minimum inhibitory concentrations endpoint determined as 90% reduction in turbidity measured using a spectrophotometer (Titertek multiscan at 690 nm wave length).

C. glabrata = format: cell-based, Candida glabrata
Protocol: as §1, §2

C. krusei = format: cell-based, Candida krusei
Protocol: as §1, §2

Compound	MIC 90 at 48 hours (C. albicans) [µg/mL]	MIC 90 at 48 hours (C. glabrata; C. glabrata 18012, 35° C.)	MIC 90 at 48 hours (C. glabrata; C. glabrata 995651, 35° C.)	MIC 90 at 48 hours (C. glabrata; C. glabrata 995667, 35° C.)	MIC 90 at 48 hours (C. krusei) [µg/mL]	MIC 90 at 48 hours (C. albicans; C. albicans 000954, 35° C.)	MIC 90 at 48 hours (C. albicans; C. albicans 011587, 35° C.)	MIC 90 at 48 hours (C. albicans; C. albicans 983201-R1, 35° C.)	MIC 90 at 48 hours (C. albicans; C. albicans 991185, 35° C.)	MIC 90 at 48 hours (C. albicans; C. albicans 994199, 35° C.)	MIC 90 at 48 hours (C. albicans; C. albicans 995147, 35° C.)	MIC 90 at 48 hours (C. albicans; C. albicans ATCC 24433, 35° C.)	MIC 90 at 48 hours (C. albicans; C. albicans ATCC 76615, 35° C.)	MIC 90 at 48 hours (C. krusei; C. krusei 995668, 35° C.)	MIC 90 at 48 hours (C. albicans; C. albicans 995439, 35° C.)	MIC 90 at 48 hours (C. krusei; C. krusei 004490, 35° C.)	MIC 90 at 48 hours (C. krusei; C. krusei 991388, 35° C.)
CC(C)[C@H](NC(=O)[C@H](Cc1ccccc1)NC(=O)[C@H](CCCCN)NC(=O)C1(NC(=O)[C@H](Cc2c[nH]c3ccccc23)NC(=O)[C@H](CCCNC(=N)N)NC(=O)[C@@H](Cc2ccc3ccccc3c2)NC(=O)[C@@H](N)Cc2c[nH]cn2)CCCCC1)C(N)=O [MSH0712, H-His-D(2)-Nal-Arg-Trp-Aoca-Lys-Phe-Val-NH2] (H-H[d2Nal]RW[Ac6c]KFV-NH2)	60 (≈ 50.3 µM)	no	no	no	–	–	–	–	–	–	–	–	–	–	–	–	–
CC(C)[C@H](NC(=O)[C@H](Cc1ccccc1)NC(=O)[C@H](CCCCN)NC(=O)C1(NC(=O)[C@H](Cc2c[nH]c3ccccc23)NC(=O)[C@H](CCCNC(=N)N)NC(=O)[C@@H](Cc2ccc3ccccc3c2)NC(=O)[C@@H](N)Cc2c[nH]cn2)CCCC1)C(N)=O [MSH0705, H-His-D(2)-Nal-Arg-Trp-Cpa-Lys-Phe-Val-NH2] (H-H[d2Nal]RW[Ac5c]KFV-NH2)	–	no	no	no	117 (≈ 99.2 µM)	–	–	–	–	–	–	–	–	–	–	–	–
CC(C)[C@H](NC(=O)[C@H](Cc1ccccc1)NC(=O)[C@H](CCCCN)NC(=O)[C@@H](NC(=O)[C@H](Cc1c[nH]c2ccccc12)NC(=O)[C@H](CCCNC(=N)N)NC(=O)[C@@H](Cc1ccc2ccccc2c1)NC(=O)[C@@H](N)Cc1c[nH]cn1)C(C)(C)C)C(N)=O [MSH0707, H-His-D(2)-Nal-Arg-Trp-tBuGly-Lys-Phe-Val-NH2] (H-H[d2Nal]RW[Tle]KFV-NH2)	118 (≈ 99.9 µM)	no	no	no	118 (≈ 99.9 µM)	no	no	no	no	no	no	no	no	no	–	–	–
H-His-D(2)-Nal-Arg-Trp-Acpc-Lys-Phe-Val-NH2 [MSH0706]	–	no	no	–	–	no	no	no	no	no	no	no	no	no	no	no	no
CC(C)[C@H](NC(=O)[C@H](Cc1ccccc1)NC(=O)[C@H](CCCCN)NC(=O)C1(NC(=O)[C@H](Cc2c[nH]c3ccccc23)NC(=O)[C@H](CCCNC(=N)N)NC(=O)[C@@H](Cc2ccc3ccccc3c2)NC(=O)[C@@H](N)Cc2c[nH]cn2)CCC1)C(N)=O [MSH0709, H-His-D(2)-Nal-Arg-Trp-Cybu-Lys-Phe-Val-NH2] (H-H[d2Nal]RW[Ac4c]KFV-NH2)	117 (≈ 100 µM)	no	no	no	117 (≈ 100 µM)	no	–	no	–	–	no	no	no	–	–	–	–
